Measured values as given in patent US12702674B2, “Methods for producing chemoembolic agents for the delivery of anti-cancer agents” (University of Utah Research Foundation, priority 2017, dated 2026).
Counter-ions that a name gives are not always drawn.

Assays:
Hep3B = assay: WST-8 cell viability assay, single agent in vitro toxicity; assay type: cell-based; details: Homo sapiens, 72 hours of incubation, media containing 0.5% DMSO, read-out: IC50 Values of Each Drug per HCC Cell Line
Description: (§1) Growth inhibition by the base drugs used in this study was evaluated on three different hepatoma cell lines—two human HCC lines and one rat cell line—using a 2-(2-methoxy-4-nitrophenyl)-3-(4-nitrophenyl)-5-(2,4-disulfophenyl)-2H-tetrazolium monosodium salt (WST-8) cell viability assay (Dojindo Molecular Technologies, Inc., Rockville, MD). Human cell lines Hep3B and HepG2 were obtained from ATCC (Manassas, VA) and cultured in EMEM cell culture medium (ATCC) supplemented with 10% fetal bovine serum (FBS). The rat hepatoma line McA-RH7777 was generously donated by the Larson Lab (Northwestern University, IL). This line was cultured in DMEM cell culture medium (ATCC) supplemented with 10% FBS. All lines were grown at 37° C. in a humidified atmosphere of 5% CO2.
(§2) To prevent precipitation of the drugs, media containing 0.5% DMSO was used throughout all the studies. Doubling times of the cell lines were similar; therefore, cells were plated at the same density of 7,000 cells per well in 96-well plates for 24 hours. Media was removed, cells were washed with PBS, and treatment was applied. Drug concentrations were varied to include data points ranging from non-toxic to highly toxic. Following 72 hours of incubation, the media was removed and cell viability was quantified using the WST-8 assay with a SpectraMax M2 spectrophotometer (Molecular Devices, Sunnyvale, CA).
(§3) Each experiment was performed with N=6, assessing viability at 10 different drug concentrations. Relative cell viability was calculated by normalizing against the UV absorbance of untreated cells. GraphPad Prism was used to plot relative cell viability as a function of log drug concentration with a non-linear least-squares regression analysis and calculation of IC50 values.

human HCC HepG2 cells = assay: as above; assay type: cell-based; details: 72 hours of incubation, media containing 0.5% DMSO, read-out: IC50 Values of Each Drug per HCC Cell Line
Description: as §1, §2, §3

[1] = tested on: rat hepatoma line McA-RH7777; assay: as above; assay type: cell-based; details: 72 hours of incubation, media containing 0.5% DMSO, read-out: IC50 Values of Each Drug per HCC Cell Line
Description: as §1, §2, §3

[2] = In vitro drug release from 9% SELP-815K gels (RP-HPLC); assay type: physicochemical; details: for cumulative release of sorafenib: 9% SELP-815K, 14-day release
Description: (§4) SELP-815K formulations were prepared at 12% w/w in 1× phosphate buffered saline (PBS). Powder drugs were milled for 12 hours to reduce crystal size and variability using a custom built ball mill. Milled samples were inspected microscopically to verify homogeneity. Two methods of drug incorporation were investigated. […] Drug loading concentration was chosen based on manufacturer specified loading of doxorubicin in DEBs. The same loading was used for sorafenib.
(§5) For dual drugs, drug loading was 12.5 mg/mL for each drug, for a total drug loading of 25 mg/mL. Samples were chilled on ice until tested. Samples incorporating powder drug in 12% w/w SELP-815K were prepared without dilution; however, the volume addition of the powdered drug was not considered in the calculation of the SELP concentration. Samples with powdered drug were tested at 25 and 50 mg/mL for single drug loaded samples and 25 mg/mL per drug for dual drug loaded samples.
(§6) The drug loaded SELP solutions were drawn into 0.5 cd insulin syringes and incubated overnight at 37° C. followed by cutting into gel disks as previously described. Weights were recorded. Individual gels were placed into 8 dram glass vials, to which 25 mL of release media consisting of 1×PBS, 1% SDS was added. The elution volume was chosen to ensure sink conditions and complete dissolution of both drugs, if all drug eluted immediately.
At predetermined time points of 1 hour, 3 hours, 6 hours, 12 hours, 1 day, 3 days, 5 days, 7 days, 10 days, 14 days, and 20 and 30 days for extended-release studies, a sample volume was removed for analysis and replaced with fresh media. Vials were sealed and maintained in a shaking incubator at 37° C., 120 rpm. The 9% SELP-815K gels underwent release testing for 14 days. The 12% SELP-815K gels were tested for 30 days.
(§7) Drug content in the release media was detected by reverse phase high performance liquid chromatography (RP-HPLC; Agilent Technologies, Santa Clara, CA) using a RPC18 X-Terra column (4.6×250 mm, 5 µm particle size; Waters, Milford, MA) and a guard column of the same packing material. The elution gradient at time zero began with mobile phase of 40% 20 mM ammonium acetate and 60% acetonitrile (CAN), which increased to 72% CAN over 9 minutes at a flow rate of 1 mL/min. Percent cumulative release was calculated using the experimental drug loading per disk based on the pre-release weight.

[3] = In vitro drug release from 12% SELP-815K gels (RP-HPLC); assay type: physicochemical; details: day 30
Description: as §5
as §6, with “immediately. […]” for “immediately.”
as §7, with “The elution gradient at time zero began with mobile phase of 40% 20 mM ammonium acetate and 60% acetonitrile (CAN), which increased to 72% CAN over 9 minutes at a flow rate of 1 mL/min.” left out

[4] = Rheological characterization of drug loaded 9% SELP-815K; assay type: physicochemical; details: SELP solution with dox HCl, as drug powder or DMSO solution, 25 mg/mL
Description: as §4, §5
An AR 550 stress-controlled rheometer from TA Instruments (New Castle, DE) was used for rheological testing. A cone-and-plate configuration equipped with a stainless steel 20 mm diameter, 4 degree geometry was used. An oscillation procedure with a temperature ramp from 18° C. to 37° C. […]

cumulative release of sorafenib ([2]; DMSO dissolved drug, dual drug loaded gels (12.5 mg/mL each drug)) | cumulative release of sorafenib ([2]; DMSO dissolved drug, single drug loaded gel (25 mg/mL)) | cumulative release of sorafenib ([2]; powder drug, dual drug loaded gel (12.5 mg/mL each drug)) | cumulative release of sorafenib ([2]; powder drug, single drug loaded gel (25 mg/mL)) | loaded doxorubicin released in the first day ([2]; 9% SELP-815K gels, base form, in DMSO or powder, first day) | loaded doxorubicin released by day 14 ([2]; 9% SELP-815K gels, base form, day 14) | total drug content of doxorubicin released (cumulative release) ([3]; 25 mg/mL single drug loaded and dual drug loaded gels) | cumulative release of doxorubicin ([3]; 50 mg/mL single drug loaded gel) | viscosity relative to the SELP control with no drug [4] | SMILES | IC50 (Hep3B) | IC50 (human HCC HepG2 cells) | IC50 [1]
95% | less than 60% | 22% | 8.7% | – | – | – | – | – | CNC(=O)c1cc(Oc2ccc(NC(=O)Nc3ccc(Cl)c(C(F)(F)F)c3)cc2)ccn1 [Sorafenib] | 3.47 ± 0.2 µM | 1.72 ± 0.7 µM | 6.88 ± 0.83 µM
– | – | – | – | More than 50% | nearly all of the loaded drug released | 30% | 15% | – | COc1cccc2c1C(=O)c1c(O)c3c(c(O)c1C2=O)C[C@@](O)(C(=O)CO)C[C@@H]3O[C@H]1C[C@H](N)[C@H](O)[C@H](C)O1 [Doxorubicin] | 0.29 ± 0.04 µM | 0.62 ± 0.41 µM | 0.48 ± 0.32 µM
– | – | – | – | – | – | – | – | more than 2 fold | COc1cccc2c1C(=O)c1c(O)c3c(c(O)c1C2=O)C[C@@](O)(C(=O)CO)C[C@@H]3O[C@H]1C[C@H](N)[C@H](O)[C@H](C)O1 [dox HCl, doxorubicin hydrochloride] | – | – | –
